Measured values: article PMC11215747, “Improved Rigidin-Inspired Antiproliferative Agents with Modifications on the 7-Deazahypoxanthine C7/C8 Ring Systems” (Journal of Medicinal Chemistry, 2024)
“Also recorded” adds a separate entry of the source. Read-outs that look alike come from different tables or passages of the source.

How the values were obtained:
MCF-7 cells = tested on: MCF-7 cells; set-up: method as in PMID 26641132; details: cited from earlier work
PNT1A cells = assay: MTT cytotoxicity assay against normal epithelial cell line PNT1A; type: cell-based; details: Homo sapiens, PNT1A
Experimental: (§1) The 3-(4,5-dimethylthiazol-2-yl)-2,5-diphenyltetrazolium bromide (MTT) assay was employed to evaluate the antiproliferative activities of the synthesized 7-deazahypoxathine analogues. The HeLa, PNT1A, or PANC-1 cell lines were assessed by trypsinizing and seeding 4 × 10^3 cells per well into 96-well plates. Synthesized compounds were dissolved in DMSO at a concentration of either 50 mM or 100 mM before cell treatment. Cells were grown for 24 h and then treated with compounds at concentrations ranging from 0.04 to 100 μM and incubated for 48 h in 200 μL media. Twenty microliters of MTT reagent in serum-free medium (5 mg/mL) was added to each well and incubated further for 2 h. Media was removed and the resulting formazan crystals were resolubilized in 200 μL of DMSO. A Thermomax Molecular Device plate reader was utilized to measure A490. Experiments were performed in quadruplicate and repeated at least twice for each compound. The control comprised of cells treated with 0.1% DMSO. One micromolar phenyl arsine oxide (PAO) was utilized as a positive killing control.

[1] = tested on: WI38 embryonic lung fibroblast cell line; set-up: method as in PMID 26641132; details: fold less active; cited from earlier work
colon cancer = tested on: colon cancer; set-up: method as in PMID 26641132; details: mouse model for colon cancer, 3 mg/kg; cited from earlier work
HeLa cells [2] = assay: Annexin V apoptosis assay and cell-fate tracking in HeLa cells; type: cell-based, Human; details: 20 nM; for apoptosis at the 30 hour time point (Annexin V fluorescence): 6 biological replicates, one-way ANOVA amongst compounds; for total numbers of cells that died following mitotic arrest: single-cell tracking, >130 cells per treatment
Experimental: To directly assess apoptosis in living cells, HeLa cells were plated (six biological replicates per condition) in 96-well Imagelock Plates (Sartorius BA-04855) at a density of 1,562.5 cells/cm^2. The following day, cells were placed in media containing IncuCyte Annexin V Dye (Sartorius 4642) supplemented with either 0.1% Dimethyl sulfoxide or test compounds (20 nM), and plates were placed in a Sartorius Incucyte S3 live cell imaging system. Plates were scanned hourly, with phase contrast and green fluorescence images were acquired at three positions per well. Raw fluorescence data was processed using Incucyte software, and Prism Graphpad was used for data visualization and statistical analysis. To track individual cell fates, combined phase contrast/fluorescence time lapse sequences were exported from multiple wells per condition, and cell fates individual cells were scored and tabulated using Graphpad Prism software.

human colon cancer lines = tested on: human colon cancer lines; set-up: method as in PMID 26641132; details: several human colon cancer lines; cited from earlier work
tubulin = target: T1, tubulin (Sus scrofa, UniProt P02554); assay: Fluorescence-based tubulin polymerization assay; type: biochemical; details: 25 μM, relative to 1% DMSO control, averaged from two experiments
T1 construct: purchased Cytoskeleton, Inc
Experimental: The fluorescence-based tubulin polymerization assay from Cytoskeleton, Inc. was used. […] The tubulin reaction mixture was prepared per manufacturer’s instructions, kept on ice, and used within ∼15 min of preparation. A Biotek Synergy H4 hybrid multimode plate reader was preheated to 37 °C. Prior to starting the assay, a half-area black 96-well plate was preheated within the plate reader. A volume of 5 μL of each of the tested samples was pipetted into separate wells of the plate and incubated in the warm plate reader for 1 min.

HeLa cells [3] = assay: MTT antiproliferative assay against HeLa cells; type: cell-based, Human; details: Homo sapiens, MTT, 48 h, average and SD from two independent determinations, each in quadruplicate (footnote c), read-out: GI50 (μM) ± SD
Experimental: as §1, with “control. […]” for “control.”

HeLa cells [4] = assay: Microtubule organization by immunolabeling in HeLa cells; type: cell-based, Human; details: 4 h
Experimental: To examine microtubule morphology in rigidin-treated cells, HeLa cells were incubated for 4 h in the presence or absence of test compound before being fixed with 3.7% formaldehyde in PBS and permeabilized with 0.1% Triton X-100 in PBS. After blocking the cells with 3% bovine serum albumin in PBS, they were probed with antibodies for the centromere marker CENP-B (Abcam, code ab25734) and tubulin (Sigma, code sc-53029), which were detected with Alexa Fluor-labeled secondary antibodies (Thermofisher). Hoechst 33342 (1 mg/mL, Thermofisher H3570) was used to stain DNA. Samples were mounted on glass slides and imaged using Andor Dragonfly 505 spinning disk confocal system mounted on an Olympus IX83 inverted microscope. Figures were created with Adobe Photoshop CS5. All drugs were resuspended in DMSO, and 0.1% DMSO served as a carrier control.

HeLa cells [5] = assay: Live cell imaging of EGFP-tubulin expressing HeLa cells; type: cell-based, Human; details: 7.5 nM (50% of GI50), 4 h
Experimental: HeLa cells were plated on 35 mm glass-bottomed Mattek dishes (Mattek, code P35G-1.5–14-C). Next day, transient transfection of EGFP-tubulin was performed using a Lipofectamine 2000 (Thermofisher code 11668019) according to the manufacturer’s instructions. After 6 h of transfection, cells were cultured in fresh media overnight before being treated with either 0.1% DMSO or 7.5 nM analogue 33 for 4 h. To visualize chromatin, cells were cultured in the presence the cell permeant NucSpot Live nuclear stain (Biotium code 40082) for 60 min prior to imaging. Cells were imaged live using an Andor Dragonfly 505 spinning disk confocal system mounted on an Olympus IX83 inverted microscope. Cell viability was maintained by an Oko Touch prewarmed (37 °C) temperature-controlled microscope stage supplied with 5% CO2. Z-stacks (10 planes at […] intervals) were acquired every 2 min using a 60× Aprochromat silicon objective (NA 1.30) and an Andor iXon 888 EMCCD camera driven by Andor Fusion software. Fusion IMS files were converted to tiff images and avi movies using FIJI, and figures were prepared in Adobe Photoshop CS5.

PANC-1 cells = assay: MTT cytotoxicity assay against PANC-1 cells; type: cell-based; details: Homo sapiens; PANC-1 cell line
Experimental: as §1

T1 sequence (P02554 whole entry): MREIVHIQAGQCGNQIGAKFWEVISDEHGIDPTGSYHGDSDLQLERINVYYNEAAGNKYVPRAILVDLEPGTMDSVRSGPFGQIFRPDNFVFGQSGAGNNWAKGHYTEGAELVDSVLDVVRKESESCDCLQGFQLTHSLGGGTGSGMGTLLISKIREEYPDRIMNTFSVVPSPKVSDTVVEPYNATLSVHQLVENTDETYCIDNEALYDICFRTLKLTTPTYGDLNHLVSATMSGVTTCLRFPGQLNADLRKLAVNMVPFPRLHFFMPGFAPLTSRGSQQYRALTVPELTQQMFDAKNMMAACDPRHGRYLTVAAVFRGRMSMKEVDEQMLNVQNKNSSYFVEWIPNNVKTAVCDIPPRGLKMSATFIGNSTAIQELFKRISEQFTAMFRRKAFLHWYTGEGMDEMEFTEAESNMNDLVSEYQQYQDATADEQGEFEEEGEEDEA
T1 sequence (P02550 whole entry partner): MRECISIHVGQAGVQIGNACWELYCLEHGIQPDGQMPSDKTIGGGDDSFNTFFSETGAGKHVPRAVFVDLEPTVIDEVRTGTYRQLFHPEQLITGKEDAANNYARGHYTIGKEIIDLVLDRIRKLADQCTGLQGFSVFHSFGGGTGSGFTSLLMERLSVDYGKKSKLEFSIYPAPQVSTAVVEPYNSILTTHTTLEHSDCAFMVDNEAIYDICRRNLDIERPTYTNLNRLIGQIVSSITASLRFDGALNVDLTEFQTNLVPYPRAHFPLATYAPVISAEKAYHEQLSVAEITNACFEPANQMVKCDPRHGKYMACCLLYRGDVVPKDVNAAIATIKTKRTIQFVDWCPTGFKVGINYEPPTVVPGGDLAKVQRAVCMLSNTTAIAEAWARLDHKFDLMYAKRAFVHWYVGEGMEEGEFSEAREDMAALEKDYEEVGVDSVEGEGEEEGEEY

| Compound | GI50 (MCF-7 cells) | GI50 (PNT1A cells; read-out: PNT1A GI50(mM)) | activity against WI38 compared to four colorectal cancer cell lines [1] | body weight (colon cancer) | side effects (colon cancer) | tumor size (colon cancer) | apoptosis at the 30 hour time point (Annexin V fluorescence) (HeLa cells [2]) | total numbers of cells that died following mitotic arrest (HeLa cells [2]) | GI50 values (human colon cancer lines) | GI50 (PNT1A cells; molecular formula strings CSV, read-out: PNT1A GI50) | effect on in vitro tubulin polymerization (tubulin) | GI50 (HeLa cells [3]) | effect on interphase microtubules (HeLa cells [4]; at GI50 concentrations) | effect on spindle morphology (HeLa cells [4]; at GI50 concentrations) | syntelic chromosome attachments (HeLa cells [4]; lower concentrations (GI25)) | mitotic progression in live cell imaging (HeLa cells [5]) | GI50 (PANC-1 cells) |
| --- | --- | --- | --- | --- | --- | --- | --- | --- | --- | --- | --- | --- | --- | --- | --- | --- | --- |
| C#CCCCc1nc(=O)c2c(-c3ccccc3)c(C(=O)c3ccccc3)[nH]c2[nH]1 [Compound 1, 6-Benzoyl-2-(pent-4-yn-1-yl)-5-phenyl-1,7-dihydro-4H-pyrrolo[2,3-d]pyrimidin-4-one] | 35 nM | 36 ± 9 nM | approximately 1000 fold | maintaining body weight | no observable side effects | significant tumor size reduction | no significant differences | 75% | approaching single-digit nanomolar values |  |  |  |  |  |  |  |  |
| C#CCCCc1nc(=O)c2c(-c3ccccc3)c(C(=O)c3ccc(OCCOCC)cc3)[nH]c2[nH]1 [Compound 33, 6-[4-(2-Ethoxyethoxy)benzoyl]-2-(pent-4-yn-1-yl)-5-phenyl-1,7-dihydro-4H-pyrrolo[2,3-d]pyrimidin-4-one] |  |  |  |  |  |  | no significant differences | 86% |  | 24 ± 5 nM | potent inhibition of microtubule assembly; also recorded: completely suppress tubulin polymerization | 0.015 ± 0.004 µM | no striking effects on interphase microtubules | remarkable effects on the spindle morphology | still prevalent | various responses ranging from correcting the syntelic attachments and progressing through mitosis to prolonged prometaphase arrest, followed by mitotic exit and/or cell death | 15 nM |
